Data from patent US20220249480A1, “APPLICATION OF FLUORO-SUBSTITUTED 2-AMINOTHIAZOLE-5-AROMATIC CARBOXAMIDE” (HUNAN WARRANT PHARMACEUTICAL CO., LTD, priority 2019, published 2022).

Tests used:
BTK = molecular target: T1, BTK (Homo sapiens, UniProt Q06187); assay: In vitro kinase inhibition activity (33P-ATP radiometric filter assay), BTK; format: biochemical
T1 construct: purchased Invitrogen
Experimental: (§1) Test group: 50 μl DMSO was used to dissolve the compound of Formula I and Dasatinib, respectively, and the final drug concentration was 10 mM.
(§2) Starting concentration of drugs in the test group: 1 μM
(§3) Buffer solution conditions: 20 mM Hepes (pH 7.5), 10 mM MgCl2, 1 mM EGTA, 0.02% Brij35, 0.02 mg/ml BSA, 0.1 mM Na3VO4, 2 mM DTT, 1% DMSO.
(§4) Note: Required enzyme cofactor were added separately to each kinase reaction.
(§5) a) An indicated substrate was prepared in a freshly made reaction buffer.
(§6) b) Any required enzyme cofactors were added into the substrate solution described above.
(§7) c) The indicated kinase was added into the substrate solution and gently mixed.
(§8) d) The test drugs were added into the kinase reaction mixture using Echo 550.
(§9) e) ^33P-ATP (specific radioactivity 0.01 μCi/μl) was added into the reaction mixture, and the reaction was initiated.
(§10) g) The reaction was spotted onto P81 ion-exchange paper.
(§11) h) The filter was washed with 0.75% phosphoric acid.
(§12) i) The radioactive phosphorylated substrate remaining on the filter paper was measured.
(§13) Kinase activity data are expressed as the percent of the remaining kinase activity in the test samples compared with the reactions of the vehicle (dimethyl sulfoxide). IC50 values and curve fitting were obtained using Prism4 software (GraphPad).

BTK (C481S) = molecular target: T2, BTK (C481S) (Homo sapiens, UniProt Q06187, C481S); assay: In vitro kinase inhibition activity (33P-ATP radiometric filter assay), BTK (C481S); format: biochemical
T2 construct: purchased Signal Chem
Experimental: as §1, §2, §3, §4, §5, §6, §7, §8, §9, §10, §11, §12, §13

in vitro = conditions: human, microsomes; for CLint scaled at 1 μM / half-life at 1 μM: pH 7.4
Experimental: Test compound concentration: 1.0 μM
Buffer solution: 0.05 M phosphate buffer solution (pH 7.4)
Human liver microsomes: Corning® UltraPool™ HLM 150, 20 mg/mL
NADPH concentration: 1.0 mM
Total reaction volume: 850 μL
Incubation temperature: 37° C.
Pre-incubation time: 5 min (no NADPH added)
Sampling time: 0, 5, 10, 15, 20 and 30 min (0, 15 and 30 min for control group)
Sampling volume: 85 μL per time point
Test compounds: Verapamil, Dasatinib, and the compound of Formula I
a) Solutions of 10 mM test compounds in DMSO were diluted to 100 μM using acetonitrile:water (50:50).
c) 2.5 mM NADPH solution was formulated.
d) The liver microsomal protein, buffer solution, and test compound were pipetted sequentially into 1.5 ml incubation tubes according to the volume in the experimental design table, and incubated at 37° C. for 5 min with constant shaking.
e) 85 μL of the quenching reagent was added into a 250 μL quenching vial which was then placed on an ice bath.
f) The reaction was initiated by adding NADPH solution, and 85 μL sample was immediately taken and mixed evenly in the quenching vial with controlled incubation and quenching, this is referred to 0 min sampling point. The sample was capped, vortexed and centrifuged at 4° C.
g) The quenching solution was placed at 4° C. for 10 min for the precipitation of the protein.
h) The operations of other sampling points was similar to that of the 0 min sampling point.
i) The sample quenching reaction mixture solution was thoroughly mixed evenly and centrifuged at 14000 rpm for 10 min at room temperature.
j) The supernatant (˜100 μl) was pipetted for LC-MS analysis.
Instrument: Waters® ACQUITY HPLC-Xevo G2-XS QTof
Chromatographic column: ACQUITY UPLC® BEH C18 column 2.1×50 mm, 1.7 μm
Mobile phase: mobile phase A was 0.1% formic acid in water and mobile phase B was 0.1% formic acid in acetonitrile.
The amount of the parent compound at each time point was determined based on the peak area ratio (compound area/warfarin area).
The intrinsic clearance (CLint) was calculated by the following equation:
V(μL/mg)=volume of incubation (μL)/protein amount in the incubation (mg)

ABL1 = molecular target: T3, ABL1 (Homo sapiens, UniProt P00519); assay: In vitro kinase inhibition activity (33P-ATP radiometric filter assay), ABL1; format: biochemical
T3 construct: purchased Invitrogen
Experimental: as §1, §2, §3, §4, §5, §6, §7, §8, §9, §10, §11, §12, §13

T1 sequence (Q06187 whole entry): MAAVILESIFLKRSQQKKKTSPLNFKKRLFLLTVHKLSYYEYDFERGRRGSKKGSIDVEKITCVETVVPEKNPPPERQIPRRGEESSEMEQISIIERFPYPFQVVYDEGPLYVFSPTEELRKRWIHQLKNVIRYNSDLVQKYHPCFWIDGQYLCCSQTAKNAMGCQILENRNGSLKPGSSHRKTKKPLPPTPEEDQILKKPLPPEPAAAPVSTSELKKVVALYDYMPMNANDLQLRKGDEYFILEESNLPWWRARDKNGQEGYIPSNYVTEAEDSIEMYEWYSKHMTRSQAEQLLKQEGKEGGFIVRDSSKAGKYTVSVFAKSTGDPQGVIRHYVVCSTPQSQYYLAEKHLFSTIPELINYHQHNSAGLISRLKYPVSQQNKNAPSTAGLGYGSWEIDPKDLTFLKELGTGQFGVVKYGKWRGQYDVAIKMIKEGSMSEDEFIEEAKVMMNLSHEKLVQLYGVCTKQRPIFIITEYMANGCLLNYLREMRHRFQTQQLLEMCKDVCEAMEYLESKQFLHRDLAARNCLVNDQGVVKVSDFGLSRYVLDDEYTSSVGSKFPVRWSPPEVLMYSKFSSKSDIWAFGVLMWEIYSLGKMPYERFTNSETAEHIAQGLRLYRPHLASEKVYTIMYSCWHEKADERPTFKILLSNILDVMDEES
T2 sequence (Q06187 whole entry C481S): as the sequence (Q06187 whole entry) above, with C481S counted along it
T3 sequence (P00519 whole entry): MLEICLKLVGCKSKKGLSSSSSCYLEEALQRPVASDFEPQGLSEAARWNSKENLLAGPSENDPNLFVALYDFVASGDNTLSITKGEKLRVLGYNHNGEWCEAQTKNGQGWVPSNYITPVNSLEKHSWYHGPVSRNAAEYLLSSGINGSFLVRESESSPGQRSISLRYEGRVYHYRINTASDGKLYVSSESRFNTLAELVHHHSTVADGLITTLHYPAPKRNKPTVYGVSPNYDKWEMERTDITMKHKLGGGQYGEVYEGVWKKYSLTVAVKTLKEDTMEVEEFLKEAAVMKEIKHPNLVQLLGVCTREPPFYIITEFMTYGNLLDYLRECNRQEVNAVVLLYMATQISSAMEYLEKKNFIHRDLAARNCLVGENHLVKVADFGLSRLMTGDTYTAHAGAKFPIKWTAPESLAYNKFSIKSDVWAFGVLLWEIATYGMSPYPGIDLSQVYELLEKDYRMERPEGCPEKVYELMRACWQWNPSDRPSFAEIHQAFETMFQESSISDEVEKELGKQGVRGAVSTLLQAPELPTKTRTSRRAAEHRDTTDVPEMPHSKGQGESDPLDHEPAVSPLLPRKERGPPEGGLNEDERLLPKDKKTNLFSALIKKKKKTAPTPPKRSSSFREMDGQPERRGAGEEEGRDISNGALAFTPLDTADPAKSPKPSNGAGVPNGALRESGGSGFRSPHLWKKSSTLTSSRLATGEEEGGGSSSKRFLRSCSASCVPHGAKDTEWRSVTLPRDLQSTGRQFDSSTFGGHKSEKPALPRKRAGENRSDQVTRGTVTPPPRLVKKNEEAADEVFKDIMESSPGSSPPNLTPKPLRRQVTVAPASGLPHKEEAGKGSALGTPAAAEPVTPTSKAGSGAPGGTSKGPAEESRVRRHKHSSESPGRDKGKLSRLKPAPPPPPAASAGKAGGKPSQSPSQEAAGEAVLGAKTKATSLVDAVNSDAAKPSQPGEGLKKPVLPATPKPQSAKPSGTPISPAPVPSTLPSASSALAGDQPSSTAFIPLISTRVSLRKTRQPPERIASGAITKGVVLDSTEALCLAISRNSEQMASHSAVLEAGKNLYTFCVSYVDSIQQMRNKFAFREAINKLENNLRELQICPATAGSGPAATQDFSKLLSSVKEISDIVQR

Row | SMILES | IC50 (BTK; BTK 8 nM, pEY 0.2 mg/ml, ATP 10 μM, 15 min compound incubation, 2 h reaction) | Ratio Dasatinib/the compound of Formula I (BTK; ratio of IC50 values, BTK) | IC50 (BTK (C481S); BTK (C481S) 6 nM, pEY 0.2 mg/ml, ATP 10 μM, 15 min compound incubation, 2 h reaction) | Ratio Dasatinib/the compound of Formula I (BTK (C481S); ratio of IC50 values, BTK (C481S)) | Clearance (in vitro) | CLint scaled at 1 μM (in vitro) | half-life at 1 μM (in vitro) | IC50 (ABL1; ABL1 0.1 nM, ABLtide 20 μM, ATP 10 μM, 15 min compound incubation, 2 h reaction) | Ratio Dasatinib/the compound of Formula I (ABL1; ratio of IC50 values, ABL1)
1 | Cc1nc(Nc2ncc(C(=O)Nc3c(C)cc(F)cc3Cl)s2)cc(N2CCN(CCO)CC2)n1 [The compound of Formula I, N-(2-chloro-4-fluoro-6-methylphenyl)-2-[[6-[4-(2-hydroxyethyl)-1-piperazinyl]-2-methyl-4-pyrimidinyl]amino]-5-thiazolecarboxamide] | 0.157 nM | 3.32 | 0.032 nM | 3.53 | 0.0426 min⁻¹ | 142 mL/min/kg | 16.3 min | 4.2 pM | 5.95
2 | Cc1nc(Nc2ncc(C(=O)Nc3c(C)cccc3Cl)s2)cc(N2CCN(CCO)CC2)n1 [Dasatinib, reference compound] | – | – | – | – | 0.0635 min⁻¹ | 211 mL/min/kg | 10.9 min | – | –
